Reference: patent US11040987B2 (TenNor Therapeutics Limited, priority 2019, dated 2021)
≈ marks a conversion by molar mass, not a printed value.

Experiments:
A. baumannii ATCC 19606 = assay: MIC determination, broth microdilution, ESKAPE panel; format: cell-based; details: Acinetobacter baumannii, ATCC19606; iron-depleted cation-adjusted Mueller-Hinton broth, 2,2-dipyridyl 160 μM; 37° C., 18-20 hours; read-out: MIC A. baumannii ATCC 19606
Protocol: (§1) Minimum inhibitory concentration (MIC) is determined by a broth microdilution method according to the recommendation of the Clinical and Laboratory Standards Institute (CLSI) with minor modification. […] Strains of an ESKAPE panel (E. faecium ATCC 700221, S. aureus ATCC 29213, K. pneumoniae ATCC 43816, A. baumannii ATCC 19606, P. aeruginosa ATCC 27853 and Escherichia coli ATCC 25922) were obtained originally from the American Type Culture Collection (ATCC) and used for MIC determinations of compounds. The bacteria inoculum in the test is […].

E. faecium ATCC 700221 = assay: as above; format: cell-based; details: Enterococcus faecium, ATCC700221; iron-depleted cation-adjusted Mueller-Hinton broth, 2,2-dipyridyl 160 μM; 37° C., 18-20 hours; read-out: MIC E. faecium ATCC 700221
Protocol: as §1

[1] = tested on: Escherichia coli ATCC 25922; assay: as above; format: cell-based; details: ATCC25922, iron-depleted cation-adjusted Mueller-Hinton broth, 2,2-dipyridyl 160 μM, 37° C., 18-20 hours, read-out: MIC E. coli ATCC 25922
Protocol: as §1

K. pneumoniae ATCC 43816 = assay: as above; format: cell-based; details: Klebsiella pneumoniae, ATCC43816; iron-depleted cation-adjusted Mueller-Hinton broth, 2,2-dipyridyl 160 μM; 37° C., 18-20 hours; read-out: MIC K. pneumoniae ATCC 43816
Protocol: as §1

P. aeruginosa ATCC 27853 = assay: as above; format: cell-based; details: Pseudomonas aeruginosa, ATCC27853; iron-depleted cation-adjusted Mueller-Hinton broth, 2,2-dipyridyl 160 μM; 37° C., 18-20 hours; read-out: MIC P. aeruginosa ATCC 27853
Protocol: as §1

S. aureus ATCC 29213 = assay: as above; format: cell-based; details: Staphylococcus aureus, ATCC29213; iron-depleted cation-adjusted Mueller-Hinton broth, 2,2-dipyridyl 160 μM; 37° C., 18-20 hours; read-out: MIC S. aureus ATCC 29213
Protocol: as §1

A.b TNP 41704 = assay: MIC against A. baumannii clinical isolates, alone and in combination with antibiotics; format: cell-based; details: for MIC: Acinetobacter baumannii, TNP41704, Compounds alone, read-out: MIC A.b TNP 41704
A.b TNP 41708 = assay: as above; format: cell-based; details: for MIC: Acinetobacter baumannii, TNP41708, read-out: MIC A.b TNP 41708
Protocol: as §1

A.b TNP 41709 = assay: as above; format: cell-based; details: for MIC: Acinetobacter baumannii, TNP41709, Compounds alone, read-out: MIC A.b TNP 41709
AmpC_AB = AmpC_AB (Acinetobacter baumannii, UniProt Q6DRA1); assay: β-lactamase inhibition, spectrophotometric assay of nitrocefin hydrolysis; format: biochemical; details: Class C β-lactamase; 200 μM nitrocefin, 25° C., 2 hours; read-out: IC50 AmpC_AB
Source text: (§2) Hydrolytic inactivation of the β-lactam antibiotics by β-lactamases is the most widespread drug resistant mechanism and the most challenge clinically among Gram-negative bacterial pathogens. Based on the amino acid sequences, the β-lactamases are grouped into four classes (Ambler classification), of which A, C and D are serine hydrolases and B encompasses metallo-β-lactamases. The IC50 of selected derivatives disclosed herein (identified with reference to example number) plus six reference β-lactam or β-lactamase inhibitors were determined against 7 representative β-lactamases of various classes in a standard spectrophotometric assay of nitrocefin hydrolysis. The assay is performed in 384-well plate. The seven recombinant β-lactamases AmpC_AB (from A. baumannii), AmpC_PA (from P. aeruginosa), KPC-2, NDM-1, IMP-1, VIM-1 and OXA 24/40) are expressed and purified. The reaction buffer for class A, C and D enzymes is 100 mM Na2HPO4—KH2PO4 (pH 7.1) plus 0.005% Tween-20, and for class B enzymes 10 μM ZnSO4 is added. […] The 50 μL of reaction solution composed of 2 pM of β-lactamase, 200 μM of nitrocefin and series of 3-fold dilutions of test or control compounds are added by Cybio SELMA system into 384-plate and incubated in dark at 25° C. for 2 hours. The OD490 is read in MC SpectraMax Plus384 plate reader.

IMP-1 = molecular target: T1, IMP-1 (Serratia marcescens, UniProt P52699); assay: as above; format: biochemical; details: class B β-lactamase, 10 μM ZnSO4; 200 μM nitrocefin, 25° C., 2 hours; read-out: IC50 IMP-1
T1 construct: made in house
Source text: as §2

NDM-1 = molecular target: T2, NDM-1 (Klebsiella pneumoniae, UniProt C7C422); assay: as above; format: biochemical; details: class B β-lactamase, 10 μM ZnSO4; 200 μM nitrocefin, 25° C., 2 hours; read-out: IC50 NDM-1
T2 construct: made in house
Source text: as §2

VIM-1 = molecular target: T3, VIM-1 (Pseudomonas aeruginosa, UniProt A0A0F7KYQ8); assay: as above; format: biochemical; details: class B β-lactamase, 10 μM ZnSO4; 200 μM nitrocefin, 25° C., 2 hours; read-out: IC50 VIM-1
T3 construct: made in house
Source text: as §2

OXA 24/40 = molecular target: T4, OXA 24/40 (Acinetobacter baumannii, UniProt Q8RLA6); assay: as above; format: biochemical
T4 construct: made in house
Source text: as §2

T1 sequence (P52699 19-246, looked up, species assumed): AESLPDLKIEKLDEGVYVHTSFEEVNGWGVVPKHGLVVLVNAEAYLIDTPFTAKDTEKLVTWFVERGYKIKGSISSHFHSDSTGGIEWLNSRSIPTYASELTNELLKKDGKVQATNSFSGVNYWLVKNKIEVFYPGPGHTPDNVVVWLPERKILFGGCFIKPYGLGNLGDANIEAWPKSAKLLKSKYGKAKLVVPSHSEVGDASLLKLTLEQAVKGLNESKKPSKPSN
T2 sequence (C7C422 29-270, looked up, species assumed): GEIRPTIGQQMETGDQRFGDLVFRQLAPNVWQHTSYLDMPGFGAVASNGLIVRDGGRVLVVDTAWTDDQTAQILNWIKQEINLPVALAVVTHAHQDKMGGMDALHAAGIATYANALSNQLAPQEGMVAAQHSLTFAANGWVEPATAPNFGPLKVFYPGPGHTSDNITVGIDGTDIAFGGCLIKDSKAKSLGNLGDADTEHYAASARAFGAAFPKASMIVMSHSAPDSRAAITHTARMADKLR
T4 sequence (Q8RLA6 22-275): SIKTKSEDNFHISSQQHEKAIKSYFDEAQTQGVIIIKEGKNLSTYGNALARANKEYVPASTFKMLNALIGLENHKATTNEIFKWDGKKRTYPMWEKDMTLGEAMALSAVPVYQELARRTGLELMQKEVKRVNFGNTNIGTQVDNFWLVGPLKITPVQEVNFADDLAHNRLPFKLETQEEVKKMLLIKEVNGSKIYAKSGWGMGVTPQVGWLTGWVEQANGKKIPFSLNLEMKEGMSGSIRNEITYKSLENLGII

SMILES | MIC (A. baumannii ATCC 19606) [µg/mL] | MIC (E. faecium ATCC 700221) [µg/mL] | MIC [1] [µg/mL] | MIC (K. pneumoniae ATCC 43816) [µg/mL] | MIC (P. aeruginosa ATCC 27853) [µg/mL] | MIC (S. aureus ATCC 29213) [µg/mL] | MIC (A.b TNP 41704) [µg/mL] | MIC A.b TNP 41704 (A.b TNP 41704; Compounds + meropenem (1:1)) [µg/mL] | MIC A.b TNP 41704 (A.b TNP 41704; Compounds + sulbactam (1:1)) [µg/mL] | MIC (A.b TNP 41708) [µg/mL] | MIC A.b TNP 41708 (A.b TNP 41708; Compounds + meropenem (1:1)) [µg/mL] | MIC A.b TNP 41708 (A.b TNP 41708; Compounds + sulbactam (1:1)) [µg/mL] | MIC (A.b TNP 41709) [µg/mL] | MIC A.b TNP 41709 (A.b TNP 41709; Compounds + meropenem (1:1)) [µg/mL] | MIC A.b TNP 41709 (A.b TNP 41709; Compounds + sulbactam (1:1)) [µg/mL] | IC50 (AmpC_AB) [µM] | IC50 (IMP-1) [µM] | IC50 (NDM-1) [µM] | IC50 (VIM-1) [µM] | IC50 (OXA 24/40) [µM]
C[C@]1(/C=N/NC(=O)C2CCN(C(=O)c3ccc(O)c(O)c3Cl)CC2)[C@H](C(=O)O)N2C(=O)C[C@H]2S1(=O)=O [Example 42, (2S,3R,5R)-3-((E)-(2-(1-(2-chloro-3,4-dihydroxybenzoyl)piperidine-4-carbonyl)hydrazono)methyl)-3-methyl-7-oxo-4-thia-1-azabicyclo[3.2.0]heptane-2-carboxylic acid 4,4-dioxide] | 1 (≈ 1.84 µM) | > 128 | > 128 | > 128 | > 128 | 128 (≈ 236 µM) | > 128 | 2 | 8 | > 128 | 2 | 8 | > 128 | 2 | 4 | – | – | – | – | –
C[C@]1(/C=N/NC(=O)c2cccc(O)c2O)[C@H](C(=O)O)N2C(=O)C[C@H]2S1(=O)=O [Example 28, (2S,3R,5R)-3-((E)-(2-(2,3-dihydroxybenzoyl)hydrazono)methyl)-3-methyl-7-oxo-4-thia-1-azabicyclo[3.2.0]heptane-2-carboxylic acid 4,4-dioxide] | > 128 | > 128 | > 128 | > 128 | > 128 | > 128 | > 128 | 8 | 4 | > 128 | 8 | 8 | > 128 | 4 | 8 | – | – | – | – | –
CN(NC(=O)c1ccc(O)c(O)c1)C(=O)OC[C@@]1(C)[C@H](C(=O)O)N2C(=O)C[C@H]2S1(=O)=O [Example 76, (2S,3R,5R)-3-(((2-(3,4-dihydroxybenzoyl)-1-methylhydrazinecarbonyl)oxy)methyl)-3-methyl-7-oxo-4-thia-1-azabicyclo[3.2.0]heptane-2-carboxylic acid 4,4-dioxide] | 1 (≈ 2.19 µM) | > 128 | > 128 | > 128 | > 128 | > 128 | > 128 | 16 | 8 | > 128 | 32 | 16 | > 128 | 16 | 8 | – | – | – | – | –
C[C@@H](O)[C@H]1C(=O)N2C(C(=O)O)=C(SCCN=CN)C[C@H]12 [Imipenem, reference compound] | 0.25 (≈ 0.835 µM) | > 128 | 0.25 (≈ 0.835 µM) | 0.5 (≈ 1.67 µM) | 1 (≈ 3.34 µM) | < 0.06 | 16 | – | – | 32 | – | – | 32 | – | – | – | – | – | – | –
NC(=O)[C@@H]1CC[C@@H]2CN1C(=O)N2OS(=O)(=O)O [Avibactam, reference compound] | – | – | – | – | – | – | – | – | – | – | – | – | – | – | – | 2.61 | > 200 | > 200 | > 200 | –
O=C(NC1CCNCC1)[C@@H]1CC[C@@H]2CN1C(=O)N2OS(=O)(=O)O [Relebactam, reference compound] | – | – | – | – | – | – | – | – | – | – | – | – | – | – | – | 0.892 | > 200 | > 200 | > 200 | > 200
